Measured values: PMC8854719, “Phase 1A/1B dose-escalation and -expansion study to evaluate the safety, pharmacokinetics, food effects and antitumor activity of pamiparib in advanced solid tumours” (British Journal of Cancer, 2021)

Columns and labels:
[1] = tested on: poly(ADP-ribose [PAR]) formation in peripheral blood mononuclear cells (PBMCs); experiment: PAR inhibition in PBMCs (ELISA); type: in vivo; details: Homo sapiens, PBMC; sustained at doses of 10 mg BID or higher
Method: Pamiparib in plasma was measured using a validated liquid chromatography-tandem–mass spectrometry assay with a lower limit of quantification of 1.0 ng/mL. The collection schedule for blood samples used to assess the PK profile is presented in the Supplemental Appendix. Summary PK parameters, including area under the concentration-time curve from time 0 to 9 h (AUC0-9) or infinity (AUC0-inf), maximal plasma concentration (Cmax) and time to maximal plasma concentration (Tmax), were estimated. The pharmacodynamic (PD) activity of pamiparib was explored through the evaluation of poly(ADP-ribose [PAR]) formation in peripheral blood mononuclear cells (PBMCs) after pamiparib administration. The schedule for blood sample collection (PK and PBMCs) and additional assessment information for PAR levels in PBMCs and pharmacodynamic activity is presented in the Supplemental Appendix. Antitumor activity was assessed by radiographic imaging (computed tomography or magnetic resonance imaging) during screening, within 28 days of first pamiparib dose, every 6 weeks in the first 12 months and every 9 weeks thereafter.
Time-matched blood samples (PK and PBMCs) were obtained on Day 1 (predose and 4 hours postdose) and Day 17 (4 hours postdose) of Cycle 1. The PAR levels in PBMCs were measured by a validated ELISA assay using a commercial PARP pharmacodynamic assay kit (Trevigen, Gaithersburg, MD). […]

[2] = tested on: BRCA1-mutant breast cancer xenograft model; design: method as in PMID 32652442; details: cited from earlier work
[3] = design: method as in PMID 33128299; details: humans; current study and Phase 1 study in ovarian cancer; cited from earlier work

SMILES: C[C@]12CCCN1CC1=NNC(=O)c3cc(F)cc4[nH]c2c1c34 [pamiparib]
- inhibition at 10 mg [1]: ~80%
- Efficacy (tumour regression) compared with olaparib [2]: 16 fold
- Bioavailability [3]: high, with near-complete absorption
